Measured values published in patent US9708325B2, “Sulfonimidoylpurinone compounds and derivatives for the treatment and prophylaxis of virus infection” (Hoffmann-La Roche Inc., priority 2015, dated 2017).
Converted amounts (≈) assume the structure as drawn. Like-named read-outs stand apart in the source and are kept apart here. Marks after values point to notes of the source that are not given here.

Experiments:
[1] = LYSA solubility; assay type: physicochemical; conditions: for LYSA: 0.05 M phosphate buffer (pH 6.5); for solubility thermodynamic: 0.05 M phosphate buffer, pH 6.5, aqueous buffer, thermodynamic from solid
Experimental: LYSA solubility assay is used to determine the aqueous solubility of a compound. Samples were prepared in duplicate from 10 mM DMSO stock solution. […] After one night, the solutions were filtered using a microtiter filter plate. Then the filtrate and its 1/10 dilution were analyzed by HPLC-UV.

[2] = Metabolic stability in human liver microsomes; conditions: 1 μM test compound, 0.5 mg/mL microsomal protein; 6.15 mL/min/kg is the limitation of assay sensitivity
Experimental: The human microsomal stability assay is used for early assessment of metabolic stability of a test compound in human liver microsomes.
Human liver microsomes (Cat. NO.: 452117, Corning, USA; Cat. NO.: H2610, Xenotech, USA) were preincubated with test compound for 10 minutes at 37° C. in 100 mM potassium phosphate buffer, pH 7.4. The reactions were initiated by adding NADPH regenerating system. The final incubation mixtures contained 1 μM test compound, 0.5 mg/mL liver microsomal protein, 1 mM MgCL2, 1 mM NADP, 1 unit/mL isocitric dehydrogenase and 6 mM isocitric acid in 100 mM potassium phosphate buffer, pH 7.4. After incubation times of 0, 3, 6, 9, 15 and 30 minutes at 37° C., 300 μL of cold ACN (including internal standard) was added to 100 μL incubation mixture to terminate the reaction. Following precipitation and centrifugation, the amount of compound remaining in the samples were determined by LC-MS/MS. Controls of no NADPH regenerating system at zero and 30 minutes were also prepared and analyzed.

[3] = biological target: human TLR7 (Homo sapiens (Human), UniProt Q9NYK1); assay: HEK-Blue-hTLR7 cells assay (SEAP reporter); assay type: cell-based; conditions: 20 hrs
human TLR7, sequence (Q9NYK1 27-1049): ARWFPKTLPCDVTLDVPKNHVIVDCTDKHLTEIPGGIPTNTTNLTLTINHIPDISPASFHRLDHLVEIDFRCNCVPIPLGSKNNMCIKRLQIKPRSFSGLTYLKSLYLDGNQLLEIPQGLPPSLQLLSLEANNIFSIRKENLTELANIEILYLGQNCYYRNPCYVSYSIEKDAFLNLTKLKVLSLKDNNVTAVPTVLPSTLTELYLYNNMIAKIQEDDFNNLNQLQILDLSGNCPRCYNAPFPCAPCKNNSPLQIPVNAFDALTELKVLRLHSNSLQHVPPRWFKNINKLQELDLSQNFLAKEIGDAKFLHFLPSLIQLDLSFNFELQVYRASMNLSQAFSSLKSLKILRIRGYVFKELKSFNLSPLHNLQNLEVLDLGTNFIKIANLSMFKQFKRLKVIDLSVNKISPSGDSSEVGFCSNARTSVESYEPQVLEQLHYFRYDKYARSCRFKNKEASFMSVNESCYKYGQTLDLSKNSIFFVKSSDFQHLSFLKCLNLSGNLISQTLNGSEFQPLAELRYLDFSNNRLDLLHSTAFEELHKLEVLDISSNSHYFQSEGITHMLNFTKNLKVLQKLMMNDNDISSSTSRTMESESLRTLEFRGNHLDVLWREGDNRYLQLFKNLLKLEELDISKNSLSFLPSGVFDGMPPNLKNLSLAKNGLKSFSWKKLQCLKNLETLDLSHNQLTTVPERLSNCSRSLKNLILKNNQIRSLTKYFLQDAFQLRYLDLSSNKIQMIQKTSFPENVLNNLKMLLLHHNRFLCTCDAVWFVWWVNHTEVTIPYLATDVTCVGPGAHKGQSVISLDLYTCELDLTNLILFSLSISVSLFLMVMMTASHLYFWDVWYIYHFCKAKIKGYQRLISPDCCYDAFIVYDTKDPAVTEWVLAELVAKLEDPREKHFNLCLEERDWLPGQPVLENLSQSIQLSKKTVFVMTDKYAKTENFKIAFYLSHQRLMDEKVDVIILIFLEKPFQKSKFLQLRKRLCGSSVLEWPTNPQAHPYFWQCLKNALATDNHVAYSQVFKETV
Experimental: A stable HEK-Blue-hTLR7 cell line was purchased from InvivoGen (Cat.#: hkb-htlr7, San Diego, Calif., USA). These cells were designed for studying the stimulation of human TLR7 by monitoring the activation of NF-κB. […] Therefore the reporter expression was regulated by the NF-κB promoter upon stimulation of human TLR7 for 20 hrs. The cell culture supernatant SEAP reporter activity was determined using QUANTI-Blue™ kit (Cat.#: rep-qb1, Invivogen, San Diego, Ca, USA) at a wavelength of 640 nm, a detection medium that turns purple or blue in the presence of alkaline phosphatase.
HEK-Blue-hTLR7 cells were incubated at a density of 250,000˜450,000 cells/mL in a volume of 180 μL in a 96-well plate in Dulbecco's Modified Eagle's medium (DMEM) containing 4.5 g/L glucose, 50 U/mL penicillin, […], […], 2 mM L-glutamine, 10% (V/V) heat-inactivated fetal bovine serum for 24 hrs. Then the HEK-Blue-hTLR-7 cells were incubated with addition of 20 μL test compound in a serial dilution in the presence of final DMSO at 1% and perform incubation under 37° C. in a CO2 incubator for 20 hrs. Then 20 μL of the supernatant from each well was incubated with 180 μL Quanti-blue substrate solution at 37° C. for 2 hrs and the absorbance was read at 620˜655 nm using a spectrophotometer. The signalling pathway that TLR7 activation leads to downstream NF-κB activation has been widely accepted, and therefore similar reporter assay was also widely used for evaluating TLR7 agonist (Tsuneyasu Kaisho and Takashi Tanaka, Trends in Immunology, Volume 29, Issue 7, July 2008, […]; Hiroaki Hemmi et al, Nature Immunology 3, 196-200 (2002)).

[4] = read-out: HEK-Blue-hTLR7 (EC50 (μM))

| SMILES | Human Liver Microsome Clearance [2] [mL/min/kg] | solubility thermodynamic [1] [µg/mL] | EC50 [3, 4] [µM] | also measured |
| --- | --- | --- | --- | --- |
| CS(=N)(=O)c1nc(N)c2[nH]c(=O)n(Cc3ccccc3)c2n1 (single isomer, unassigned) [Example 1-A, 6-Amino-9-benzyl-2-(methylsulfonimidoyl)-7H-purin-8-one] | <6.15 |  |  | LYSA [1]: 85 µg/mL |
| COCCS(=N)(=O)c1nc(N)c2[nH]c(=O)n(Cc3ccccc3)c2n1 (single isomer, unassigned) [Example 3-A, 6-Amino-9-benzyl-2-(2-methoxyethylsulfonimidoyl)-7H-purin-8-one] | <6.15 |  |  |  |
| CCS(=N)(=O)c1nc(N)c2[nH]c(=O)n(Cc3ccc(C)cc3)c2n1 (single isomer, unassigned) [Example 71-B, 6-Amino-2-(ethylsulfonimidoyl)-9-(p-tolylmethyl)-7H-purin-8-one] | <6.15 |  |  | LYSA [1]: 13 µg/mL |
| CCS(=N)(=O)c1nc(N)c2[nH]c(=O)n(Cc3ccc(F)cc3)c2n1 (single isomer, unassigned) [Example 72-A, 6-Amino-2-(ethylsulfonimidoyl)-9-[(4-fluorophenyl)methyl]-7H-purin-8-one] | <6.15 | 90 (≈ 257 µM) |  |  |
| CCS(=N)(=O)c1nc(N)c2[nH]c(=O)n(Cc3ccc(F)cc3)c2n1 (single isomer, unassigned) [Example 72-B, 6-Amino-2-(ethylsulfonimidoyl)-9-[(4-fluorophenyl)methyl]-7H-purin-8-one] | <6.15 |  |  | LYSA [1]: 115 µg/mL |
| CS(=N)(=O)c1nc(N)c2[nH]c(=O)n(Cc3ccccc3)c2n1 (centres unmarked) [Example 1, 6-Amino-9-benzyl-2-(methylsulfonimidoyl)-7H-purin-8-one] |  |  | 0.3 | Human Liver Microsome Clearance (mL/min/kg) [2]: <6.15* mL/min/kg |
| CCS(=N)(=O)c1nc(N)c2[nH]c(=O)n(Cc3ccccc3)c2n1 (centres unmarked) [Example 2, 6-Amino-9-benzyl-2-(ethylsulfonimidoyl)-7H-purin-8-one] | <6.15 | 29 (≈ 87.2 µM) | 0.2 |  |
| COCCS(=N)(=O)c1nc(N)c2[nH]c(=O)n(Cc3ccccc3)c2n1 (centres unmarked) [Example 3, 6-Amino-9-benzyl-2-(2-methoxyethylsulfonimidoyl)-7H-purin-8-one] | <6.15 | 300 (≈ 828 µM) | 0.33 |  |
| CCCCS(=N)(=O)c1nc(N)c2[nH]c(=O)n(Cc3ccccc3)c2n1 (centres unmarked) [Example 5, 6-Amino-9-benzyl-2-(butylsulfonimidoyl)-7H-purin-8-one] | <6.15 | 40 (≈ 111 µM) | 0.32 |  |
| COCCCS(=N)(=O)c1nc(N)c2[nH]c(=O)n(Cc3ccccc3)c2n1 (centres unmarked) [Example 6, 6-Amino-9-benzyl-2-(3-methoxypropylsulfonimidoyl)-7H-purin-8-one] |  | 89 (≈ 236 µM) | 0.43 |  |
| N=S(=O)(CC(F)(F)F)c1nc(N)c2[nH]c(=O)n(Cc3ccccc3)c2n1 (centres unmarked) [Example 7, 6-Amino-9-benzyl-2-(2,2,2-trifluoroethylsulfonimidoyl)-7H-purin-8-one] |  | 18 (≈ 46.6 µM) | 0.18 |  |
| COc1ccc(Cn2c(=O)[nH]c3c(N)nc(S(=N)(=O)CCCCl)nc32)cc1 (centres unmarked) [Example 11, 6-Amino-2-(3-chloropropylsulfonimidoyl)-9-[(4-methoxyphenyl)methyl]-7H-purin-8-one] |  | 18 (≈ 43.8 µM) | 0.066 |  |
| CCCS(=N)(=O)c1nc(N)c2[nH]c(=O)n(Cc3cccc(C(N)=O)c3)c2n1 (centres unmarked) [Example 18, 3-[[6-amino-8-oxo-2-(propylsulfonimidoyl)-7H-purin-9-yl]methyl]benzamide] |  | 166 (≈ 426 µM) | 0.047 |  |
| CS(=N)(=O)c1nc(N)c2[nH]c(=O)n(Cc3ccccn3)c2n1 (centres unmarked) [Example 19, 6-Amino-2-(methylsulfonimidoyl)-9-(2-pyridylmethyl)-7H-purin-8-one] |  | > 428 | 0.67 |  |
| CCCS(=N)(=O)c1nc(N)c2[nH]c(=O)n(CC(C)C)c2n1 (centres unmarked) [Example 21, 6-Amino-9-isobutyl-2-(propylsulfonimidoyl)-7H-purin-8-one] |  | 121 (≈ 387 µM) |  |  |
| CCCS(=N)(=O)c1nc(N)c2[nH]c(=O)n(Cc3ccc(F)cc3F)c2n1 (centres unmarked) [Example 31, 6-Amino-9-[(2,4-difluorophenyl)methyl]-2-(propylsulfonimidoyl)-7H-purin-8-one] | <6.15 |  | 0.04 |  |
| CCCS(=N)(=O)c1nc(N)c2[nH]c(=O)n(Cc3ccc(C#N)cc3)c2n1 (centres unmarked) [Example 32, 4-[[6-Amino-8-oxo-2-(propylsulfonimidoyl)-7H-purin-9-yl]methyl]benzonitrile] | <6.15 | 18 (≈ 48.5 µM) |  | EC50 ([3]; HEK-Blue-hTLR7 (EC50 (μM))): 0.054 µM |
| CCCS(=N)(=O)c1nc(N)c2[nH]c(=O)n(Cc3ccc(C(N)=O)cc3)c2n1 (centres unmarked) [Example 33, 4-[[6-amino-8-oxo-2-(propylsulfonimidoyl)-7H-purin-9-yl]methyl]benzamide] | <6.15 | 79 (≈ 203 µM) | 0.066 |  |
| CCCS(=N)(=O)c1nc(N)c2[nH]c(=O)n(Cc3ccnc(C)c3)c2n1 (centres unmarked) [Example 35, 6-Amino-9-[(2-methyl-4-pyridyl)methyl]-2-(propylsulfonimidoyl)-7H-purin-8-one] | <6.15 |  | 0.12 |  |
| CCCS(=N)(=O)c1nc(N)c2[nH]c(=O)n(Cc3ccc(S(C)(=O)=O)cc3)c2n1 (centres unmarked) [Example 37, 6-Amino-9-[(4-methylsulfonylphenyl)methyl]-2-(propylsulfonimidoyl)-7H-purin-8-one] | <6.15 |  | 0.023 |  |
| CCCS(=N)(=O)c1nc(N)c2[nH]c(=O)n(Cc3ccc(C(=O)OC)cc3)c2n1 (centres unmarked) [Example 38, Methyl 4-[[6-amino-8-oxo-2-(propylsulfonimidoyl)-7H-purin-9-yl]methyl]benzoate] |  |  | 0.075 |  |
| CCCS(=N)(=O)c1nc(N)c2[nH]c(=O)n(Cc3ccc(C(=O)NCCOC)cc3)c2n1 (centres unmarked) [Example 40, 4-[[6-Amino-8-oxo-2-(propylsulfonimidoyl)-7H-purin-9-yl]methyl]-N-(2-methoxyethyl)benzamide] | <6.15 | 168 (≈ 375 µM) | 0.15 |  |
| CCCS(=N)(=O)c1nc(N)c2[nH]c(=O)n(Cc3ccc(C(=O)N4CCCCC4)cc3)c2n1 (centres unmarked) [Example 41, 6-Amino-9-[[4-(piperidine-1-carbonyl)phenyl]methyl]-2-(propylsulfonimidoyl)-7H-purin-8-one] |  |  | 0.084 |  |
| CCCS(=N)(=O)c1nc(N)c2[nH]c(=O)n(Cc3ccc(C(=O)N4CCCC4)cc3)c2n1 (centres unmarked) [Example 42, 6-Amino-2-(propylsulfonimidoyl)-9-[[4-(pyrrolidine-1-carbonyl)phenyl]methyl]-7H-purin-8-one] |  |  | 0.09 |  |
| CCCS(=N)(=O)c1nc(N)c2[nH]c(=O)n(Cc3cncnc3)c2n1 (centres unmarked) [Example 43, 6-Amino-2-(propylsulfonimidoyl)-9-(pyrimidin-5-ylmethyl)-7H-purin-8-one] | <6.15 | > 465 | 0.24 |  |
| CCS(=N)(=O)c1nc(N)c2[nH]c(=O)n(Cc3ccc(C)cc3)c2n1 (centres unmarked) [Example 71, 6-Amino-2-(ethylsulfonimidoyl)-9-(p-tolylmethyl)-7H-purin-8-one] |  | 12 (≈ 34.6 µM) | 0.098 |  |
| CCS(=N)(=O)c1nc(N)c2[nH]c(=O)n(Cc3ccc(F)cc3)c2n1 (centres unmarked) [Example 72, 6-Amino-2-(ethylsulfonimidoyl)-9-[(4-fluorophenyl)methyl]-7H-purin-8-one] | <6.15 | 152 (≈ 434 µM) |  |  |
